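A five-concentration, 48-hour dose response in 96-well plates underlies each endpoint, interpolated linearly between surrounding concentrations. GI50 marks 50% less growth. TGI denotes the concentration required for complete inhibition of growth.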
Legend:
Experiment in all cases: DTP human tumour cell line panel, 48 h
HCT-15 colon = system: HCT-15 colon
SNB-19 CNS = system: SNB-19 CNS
HOP-92 NSCLC = system: HOP-92 NSCLC
BT-549 breast = system: BT-549 breast
SF-295 CNS = system: SF-295 CNS
SK-MEL-28 melanoma = system: SK-MEL-28 melanoma
PC-3 prostate = system: PC-3 prostate
OVCAR-4 ovarian = system: OVCAR-4 ovarian
SF-268 CNS = system: SF-268 CNS
CCRF-CEM leukemia = system: CCRF-CEM leukemia
ACHN renal = system: ACHN renal
MDA-MB-435 = system: MDA-MB-435
SK-MEL-2 melanoma = system: SK-MEL-2 melanoma
K-562 leukemia = system: K-562 leukemia
SF-539 CNS = system: SF-539 CNS
MDA-MB-231 breast = system: MDA-MB-231 breast
NCI-H226 lung = system: NCI-H226 lung
SW-620 colon = system: SW-620 colon
A498 renal = system: A498 renal
NCI-H23 lung = system: NCI-H23 lung
CAKI-1 renal = system: CAKI-1 renal
A549 NSCLC = system: A549 NSCLC
MCF7 breast = system: MCF7 breast
SK-OV-3 ovarian = system: SK-OV-3 ovarian
MDA-MB-468 breast = system: MDA-MB-468 breast
M14 melanoma = system: M14 melanoma
HS 578T breast = system: HS 578T breast
RPMI-8226 leukemia = system: RPMI-8226 leukemia
HOP-62 NSCLC = system: HOP-62 NSCLC
OVCAR-3 ovarian = system: OVCAR-3 ovarian
SK-MEL-5 melanoma = system: SK-MEL-5 melanoma
OVCAR-8 ovarian = system: OVCAR-8 ovarian
NCI-H460 lung = system: NCI-H460 lung
HCC-2998 colon = system: HCC-2998 colon
786-0 renal = system: 786-0 renal
SNB-75 CNS = system: SNB-75 CNS
KM12 colon = system: KM12 colon
MALME-3M melanoma = system: MALME-3M melanoma
COLO 205 colon = system: COLO 205 colon
EKVX NSCLC = system: EKVX NSCLC
U251 CNS = system: U251 CNS
DU-145 prostate = system: DU-145 prostate
T-47D breast = system: T-47D breast
UO-31 renal = system: UO-31 renal
UACC-62 melanoma = system: UACC-62 melanoma
RXF 393 renal = system: RXF 393 renal
TK-10 renal = system: TK-10 renal
NCI/ADR-RES ovarian = system: NCI/ADR-RES ovarian
NCI-H522 lung = system: NCI-H522 lung
UACC-257 melanoma = system: UACC-257 melanoma
SR leukemia = system: SR leukemia
MOLT-4 leukemia = system: MOLT-4 leukemia
LOX IMVI melanoma = system: LOX IMVI melanoma
HT29 colon = system: HT29 colon
SN12C renal = system: SN12C renal
OVCAR-5 ovarian = system: OVCAR-5 ovarian
HL-60(TB) leukemia = system: HL-60(TB) leukemia
IGROV1 ovarian = system: IGROV1 ovarian

CCCCSc1nc(Nc2ccc(/C(C)=N/NC(N)=S)cc2)c(C#N)c(-c2ccc(F)cc2)n1
GI50 (HCT-15 colon): 1.38 µM | TGI (HCT-15 colon): 16.8 µM | GI50 (SNB-19 CNS): 2.51 µM | TGI (SNB-19 CNS): 8.31 µM | GI50 (HOP-92 NSCLC): 1.23 µM | TGI (HOP-92 NSCLC): 4.01 µM | GI50 (BT-549 breast): 6.6 µM | TGI (BT-549 breast): 28.1 µM | GI50 (SF-295 CNS): 1.21 µM | TGI (SF-295 CNS): 2.75 µM | GI50 (SK-MEL-28 melanoma): 3.83 µM | TGI (SK-MEL-28 melanoma): 17.9 µM | GI50 (PC-3 prostate): 1.42 µM | TGI (PC-3 prostate): 7.02 µM | GI50 (OVCAR-4 ovarian): 1.85 µM | TGI (OVCAR-4 ovarian): 85.5 µM | GI50 (SF-268 CNS): 13.6 µM | TGI (SF-268 CNS): 89.3 µM | GI50 (CCRF-CEM leukemia): 0.814 µM | TGI (CCRF-CEM leukemia): > 100 µM | GI50 (ACHN renal): 0.858 µM | TGI (ACHN renal): 4.37 µM | GI50 (MDA-MB-435): 4.13 µM | TGI (MDA-MB-435): 24.8 µM | GI50 (SK-MEL-2 melanoma): 4.4 µM | TGI (SK-MEL-2 melanoma): 20 µM | GI50 (K-562 leukemia): 4.46 µM | TGI (K-562 leukemia): > 100 µM | GI50 (SF-539 CNS): 1.4 µM | TGI (SF-539 CNS): 4.49 µM | GI50 (MDA-MB-231 breast): 1.03 µM | TGI (MDA-MB-231 breast): 4.28 µM | GI50 (NCI-H226 lung): 1.59 µM | TGI (NCI-H226 lung): 5.29 µM | GI50 (SW-620 colon): 2.7 µM | TGI (SW-620 colon): 42.1 µM | GI50 (A498 renal): 2.7 µM | TGI (A498 renal): 7.1 µM | GI50 (NCI-H23 lung): 1.56 µM | TGI (NCI-H23 lung): 4.69 µM | GI50 (CAKI-1 renal): 1.71 µM | TGI (CAKI-1 renal): 4.97 µM | GI50 (A549 NSCLC): 2.35 µM | TGI (A549 NSCLC): 7.57 µM | GI50 (MCF7 breast): 0.893 µM | TGI (MCF7 breast): 11.4 µM | GI50 (SK-OV-3 ovarian): 3.54 µM | TGI (SK-OV-3 ovarian): 9.87 µM | GI50 (MDA-MB-468 breast): 2.26 µM | TGI (MDA-MB-468 breast): 8.99 µM | GI50 (M14 melanoma): 3.52 µM | TGI (M14 melanoma): 19.6 µM | GI50 (HS 578T breast): 1.71 µM | TGI (HS 578T breast): 8.14 µM | GI50 (RPMI-8226 leukemia): 3.4 µM | TGI (RPMI-8226 leukemia): > 100 µM | GI50 (HOP-62 NSCLC): 2.25 µM | TGI (HOP-62 NSCLC): 5.1 µM | GI50 (OVCAR-3 ovarian): 2.57 µM | TGI (OVCAR-3 ovarian): 10.1 µM | GI50 (SK-MEL-5 melanoma): 2.3 µM | TGI (SK-MEL-5 melanoma): 12.5 µM | GI50 (OVCAR-8 ovarian): 3.85 µM | TGI (OVCAR-8 ovarian): 21.1 µM | GI50 (NCI-H460 lung): 0.578 µM | TGI (NCI-H460 lung): 2.25 µM | GI50 (HCC-2998 colon): 3.29 µM | TGI (HCC-2998 colon): 18.7 µM | GI50 (786-0 renal): 1.69 µM | TGI (786-0 renal): 3.88 µM | GI50 (SNB-75 CNS): 1.6 µM | TGI (SNB-75 CNS): 6.54 µM | GI50 (KM12 colon): 15.9 µM | TGI (KM12 colon): > 100 µM | GI50 (MALME-3M melanoma): 2.39 µM | TGI (MALME-3M melanoma): 11.5 µM | GI50 (COLO 205 colon): 4.03 µM | TGI (COLO 205 colon): 23.1 µM | GI50 (EKVX NSCLC): 3.67 µM | TGI (EKVX NSCLC): 17.2 µM | GI50 (U251 CNS): 1.24 µM | TGI (U251 CNS): 3.83 µM | GI50 (DU-145 prostate): 3.12 µM | TGI (DU-145 prostate): 49.8 µM | GI50 (T-47D breast): 1.19 µM | TGI (T-47D breast): 18 µM | GI50 (UO-31 renal): 0.761 µM | TGI (UO-31 renal): 3.01 µM | GI50 (UACC-62 melanoma): 2.91 µM | TGI (UACC-62 melanoma): 12 µM | GI50 (RXF 393 renal): 1.97 µM | TGI (RXF 393 renal): 5.49 µM | GI50 (TK-10 renal): 2.92 µM | TGI (TK-10 renal): 7.08 µM | GI50 (NCI/ADR-RES ovarian): 1.34 µM | TGI (NCI/ADR-RES ovarian): 5.72 µM | GI50 (NCI-H522 lung): 1.92 µM | TGI (NCI-H522 lung): 7.05 µM | GI50 (UACC-257 melanoma): 15.4 µM | TGI (UACC-257 melanoma): 61.8 µM | GI50 (SR leukemia): 8.62 µM | TGI (SR leukemia): > 100 µM | GI50 (MOLT-4 leukemia): 3.63 µM | TGI (MOLT-4 leukemia): > 100 µM | GI50 (LOX IMVI melanoma): 1.88 µM | TGI (LOX IMVI melanoma): 10.1 µM | GI50 (HT29 colon): 5.89 µM | TGI (HT29 colon): > 100 µM | GI50 (SN12C renal): 11.8 µM | TGI (SN12C renal): 57 µM | GI50 (OVCAR-5 ovarian): 12.5 µM | TGI (OVCAR-5 ovarian): 50.5 µM | GI50 (HL-60(TB) leukemia): > 100 µM | TGI (HL-60(TB) leukemia): > 100 µM | GI50 (IGROV1 ovarian): 12 µM | TGI (IGROV1 ovarian): 30.3 µM
